Earlier results as cited in patent publication US20230405076A1, “COMPOSITION COMPRISING AKKERMANSIA MUCINIPHILA AND GREEN TEA EXTRACT” (A-MANSIA BIOTECH, priority 2020, published 2023).

Tests used:
[1] = tested on: Akkermansia genus in the Verrucomicrobia; conditions: high fat diet mice, Ushiroda 2019
[2] = via EGCG promoted increase of Akkermansia muciniphila, Sheng 2018

## Epigallocatechin-3-gallate
[1]
  abundance of the Akkermansia genus: increase
[2]
  diet-increased obesity, visceral fat, and insulin resistance: effectively reduces
